Assay results: US10265303B2, “Hyperphenylalaninemia and treatments thereof” (BERGEN TEKNOLOGIOVERFØRING AS, priority 2015, dated 2019)

Columns and labels:
[1] = target: R68S-PAH (Homo sapiens, UniProt P00439, R68S); conditions: 200 μM, 24 h, 1% DMSO
Procedure: A similar assay was used to measure PAH activity in cells lysates using 1 mM L-Phe and 200 μM BH4 with 10 min reactions and about 20-90 μg of total protein. Free amino acids and contaminants of low molecular weight were previously removed from the extracts using Zebra Desalt Spin columns (Pierce Biotechnology).
For transient expression of WT and mutant PAH, HEK293 EBNA (Epstein-Barr virus) cells, with low endogenous PAH expression, were grown as above. Cells were grown for 19 h, when they were transfected transiently transfected with […] of pcDNA3-PAH vector (WT or mutant PAH constructs R261Q, R252W, I65T and R68S) using the Lipofectamine system (Life Technologies™) as described by the manufacturer. Compound 53, with and without BH2 (200 μM) was added after 5 h of transfection at 200 μM concentration in 1% DMSO, and further incubated for 24 h, at which time the cells were harvested and stored at −80° C. In all cases a parallel negative control with only 1% DMSO was included. Cell lysates were prepared as indicated above.
Western blot analyses were performed on either cell extracts from permanently expressing or transiently transfected HEK293 cell lysates after SDS-PAGE (10% acrylamide) with 5-10 μg total protein in each lane. […] Neomycin phosphotransferase II was used as a marker of the plasmid transfection efficiency, and GAPDH was used as loading controls. […]

[2] = target: full-length tetrameric wild-type hPAH (Homo sapiens, UniProt P00439); conditions: 137.8 μM compound, 2% DMSO
full-length tetrameric wild-type hPAH, sequence (P00439 whole entry, the tested form may be a part): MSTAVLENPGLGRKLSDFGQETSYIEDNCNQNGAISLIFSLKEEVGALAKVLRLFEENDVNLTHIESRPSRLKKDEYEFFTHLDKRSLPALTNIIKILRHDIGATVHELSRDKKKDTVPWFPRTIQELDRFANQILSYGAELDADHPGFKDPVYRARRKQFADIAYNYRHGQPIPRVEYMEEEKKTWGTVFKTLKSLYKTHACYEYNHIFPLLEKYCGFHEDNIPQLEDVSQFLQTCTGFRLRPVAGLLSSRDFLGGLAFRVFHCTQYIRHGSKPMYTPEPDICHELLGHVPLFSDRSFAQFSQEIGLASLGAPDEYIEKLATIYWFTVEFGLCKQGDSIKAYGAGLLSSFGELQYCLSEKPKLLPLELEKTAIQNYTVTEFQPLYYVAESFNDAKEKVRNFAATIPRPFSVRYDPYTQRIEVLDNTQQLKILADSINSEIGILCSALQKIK
Procedure: (§1) Tetrameric full length wild-type (WT) human PAH (hPAH) and truncated ΔN102/ΔC24-hPAH corresponding to a dimeric form containing the catalytic domain of known crystal structure were recombinantly expressed in E. coli fused to maltose-binding protein and purified by amylose-affinity chromatography and further cleaved and isolated to homogeneity essentially as described [Martinez, A., et al., Biochem. J., 1995. 306: p. 589-597]. Protein concentration was measured in a NanoDrop spectrophotometer (Thermo Scientific) using the absorbance at 280 nm and the theoretical molar extinction coefficient of 49780 M^−1 cm^−1 for WT-PAH and 46675 M^−1 cm^−1 for ΔN102/ΔC24-hPAH.
(§2) PAH activity on isolated recombinant enzymes was measured at 37° C. for 1 min with quantification of L-Tyr formed by HPLC with fluorimetric detection, essentially as described [Martinez et al. supra] with the indicated concentrations of the compounds. […] After an equilibration of the plate at 37° C. for 3 min the reaction was initiated by adding 75 μM BH4 (Schircks Laboratories, Jona, Switzerland) in 5 mM DTT and stopped after 1 min by adding 50 μl of 2% (v/v) acetic acid in ethanol (all concentrations referred to a final reaction volume of 50 μl) prior to determination of L-Tyr produced by HPLC with fluorimetric detection (γexcitation=274 nm; γemission=304 nm). Controls with 2% DMSO without compound were routinely assayed as references for data processing. A BRAVO automated liquid handling platform was used in these assays.
(§3) The steady-state kinetic parameters were estimated with 0.25 μg hPAH (0.965 μM subunit), 1 mM L-Phe and different BH4 concentrations in the range 0-400 μM, and with 100 μM BH4 and L-Phe (0-1 mM). The saturation curves were fitted to hyperbolic (for BH4) or sigmoidal (for L-Phe) kinetic models with SigmaPlot v. 9.0. (SPSS). Kinetic parameters are presented as mean±SEM obtained from nonlinear regression analysis.

[3] = target: truncated dimeric hPAH ΔN102/ΔC24 (Homo sapiens, UniProt P00439); conditions: 137.8 μM compound, 2% DMSO, 1 mM L-Phe
truncated dimeric hPAH ΔN102/ΔC24, sequence (P00439 103-428 limits assumed): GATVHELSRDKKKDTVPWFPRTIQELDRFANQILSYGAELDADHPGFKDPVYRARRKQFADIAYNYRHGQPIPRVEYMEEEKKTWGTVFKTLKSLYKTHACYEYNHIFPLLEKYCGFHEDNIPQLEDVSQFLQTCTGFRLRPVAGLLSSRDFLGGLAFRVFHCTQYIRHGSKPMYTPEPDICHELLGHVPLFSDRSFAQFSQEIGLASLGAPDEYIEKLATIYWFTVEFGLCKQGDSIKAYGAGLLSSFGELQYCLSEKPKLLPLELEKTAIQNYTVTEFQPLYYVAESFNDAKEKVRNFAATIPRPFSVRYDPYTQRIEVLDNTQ
Procedure: as §1, §2, §3

R68S-PAH, sequence (P00439 whole entry R68S): as the sequence (P00439 whole entry, the tested form may be a part) above, with R68S counted along it

- PAH activity, mutant R68S [1]: An effect
- effect on Vmax and Km for BH4 ([2]; 1 mM L-Phe): decreased Vmax and Km for the cofactor
- mode of inhibition towards BH4 ([2]; 1 mM L-Phe): uncompetitive inhibition
SMILES: COc1cc(Cc2cnc(N)nc2N)cc(OC)c1OC [c53, trimethoprim]
- effect on kinetic parameters for L-Phe (Vmax and S0.5) ([2]; 100 μM BH4): does not affect the kinetic parameters for the substrate
- effect on Vmax and Km for BH4 [3]: did not change the Vmax or Km-values for BH4
